Experimental data taken from article PMC7946228, “Discovery of novel candidates for anti-liposarcoma therapies by medium-scale high-throughput drug screening” (PLoS ONE, 2021).
Read-outs that look alike come from different tables or passages of the source. Values belong to the compound of their own block, whether it stands above or below them.

What was measured:
[1] = cited from earlier work
liposarcoma cell lines [2] = assay: Drug withdrawal, reversibility of growth arrest; format: cell-based, human; settings: for reversibility of growth inhibition after drug removal: then 72h without drug, except T778 with MLN9708
Procedure: (§1) The cellular proliferation rate was measured using the IncuCyte ZOOM live-cell imaging system (Essen Bioscience, Birmingham, UK) with the corresponding software application (version 2013BRev1). First the growth rate for each cell line was established to estimate the seeding numbers of cells corresponding to 15–30% of confluence at the start of the experiment and maximum 70% after 72h. The drug treatment was initiated approximately 18h after seeding. The proliferation rate was measured as cell confluence over time through the acquisition of photographs under phase contrast every third hour for the entire duration of the drug treatment. During the drug treatment, media were not changed, and cells were not split. The growth reducing drug concentration was defined as lowest drug concentration leading to significant decrease of cellular growth between 40 and 72h after start of treatment. To determine that concentration, plots were generated using IncuCyte software and differences in growth between 40 and 72h were calculated using least-square means with the ‘emmeans’ R package version 1.4.3 [25]. Growth arresting concentrations were defined as minimal drug concentration under which cell confluence between 96 and 120h increases by less than 3%. Though growth arrest occurred much earlier, these time points ensured that the growth arrest is a stable phenomenon. These growth arresting concentrations were used for drug withdrawal, apoptosis and cell cycle experiments. All the data were verified with the plots. The presented values correspond to median values from two (T449, all compounds) to five (all cell lines, triptolide) biological replicates.
An important prerequisite for clinical implementation of these compounds as treatment for liposarcoma is irreversibility of the induced growth inhibition. We thus assessed if the drugs were only transiently cytostatic, which is especially important in case of the compounds that seem to work mainly via cell cycle arrest (APO866, GSK2126458). Cells were treated with the compounds at growth arresting concentrations for 120h after which the compounds were removed and cell numbers were monitored for another 72h. […] To irreversibly arrest cell proliferation GSK2126458 had to be used at 10x higher concentrations (100x for GOT3) (S5 Fig). Those concentrations are above physiological ranges (see Table 2), and these effects should be accounted for assessing use of GSK2126458 in clinic.

liposarcoma cell lines [3] = assay: Cell cycle analysis of non-apoptotic cells (propidium iodide); format: cell-based, human; settings: growth arresting concentration, non-apoptotic fraction
Procedure: (§2) Cells were treated with drugs at the concentrations corresponding to previously established growth arresting concentrations and collected between 17 and 72h. Time of collection was individual for every drug/cell line combination; cells were collected after the beginning of complete growth inhibition (based on the growth curves data) but only when first signs of morphological change or cell death were visible (estimated microscopically approximately every 2h). After methanol fixation, cells were barcoded with different combinations of Pacific Blue/Pacific Orange dyes (Thermo Fisher Scientific) for different drug treatments. After mixing, cells were incubated in the TUNEL reaction mix for 1h at 37°C, according to the manufacturer’s instructions (Roche, Germany), stained with Streptavidin-Cy5 conjugated Ab and digested with RNAse. Cells were counter-stained with propidium iodide and analyzed using LSR II Flow Cytometer (BD Biosciences, NJ, USA. The data were processed with FlowJo Version 7.6.5 (Tree Star, Ashland, USA). The gating strategy is presented in Fig 3A. Cy-5 positive cells (as compared to control sample) were calculated as apoptotic. Cell cycles of non-apoptotic cells were analyzed using the built in FlowJo Cell Cycle Analysis module. Three independent biological replicates were done for each cell line/drug combination with exception of FU-DDLS-1 and T1000 –for which we only had two replicates available.

[4] = tested on: LS2 liposarcoma cell line; assay: CellTiter-Glo viability, GR50, 72h; format: cell-based, human; settings: LS2, 72h, read-out: Half maximum effective concentration corrected for cell growth (GR50)
Procedure: (§3) Cell viability was measured using the CellTiter-Glo Luminescent Cell Viability Assay (Promega, Wisconsin, United States). For each experiment the same cell numbers were seeded as for the proliferation experiments. Seven drug concentrations were used, starting from 100μM with 10-fold dilutions and also a vehicle control appropriate for each drug (DMSO or ethanol). After 72h of drug or vehicle control treatment levels of ATP were measured with CellTiter-Glo. The data from six to nine biological replicates, each with three technical replicates were collected. A nonlinear regression model with different four-parameter log-logistic function was used for modelling of the drug dose-response using ‘GRmetrics’ R package version 1.8.1 [26]. The calculated GR50 metric is equivalent to the IC50 metric but takes into account the growth rate of cells. Therefore, it estimates better the effect of the compound on cell viability and allows for comparison between different cell lines with different growth rates.

[5] = tested on: LPS141 liposarcoma cell line; assay: CellTiter-Glo viability, GR50, 72h; format: cell-based, human; settings: LPS 141, 72h, read-out: Half maximum effective concentration corrected for cell growth (GR50)
Procedure: as §3

[6] = tested on: LiSa-2 liposarcoma cell line; assay: CellTiter-Glo viability, GR50, 72h; format: cell-based, human; settings: LiSa-2, 72h, read-out: Half maximum effective concentration corrected for cell growth (GR50)
Procedure: as §3

[7] = tested on: LPS510 liposarcoma cell line; assay: CellTiter-Glo viability, GR50, 72h; format: cell-based, human; settings: LPS 510, 72h, read-out: Half maximum effective concentration corrected for cell growth (GR50)
Procedure: as §3

[8] = tested on: T778 liposarcoma cell line; assay: CellTiter-Glo viability, GR50, 72h; format: cell-based, human; settings: T778, 72h, read-out: Half maximum effective concentration corrected for cell growth (GR50)
Procedure: as §3

[9] = tested on: FU-DDLS-1 liposarcoma cell line; assay: CellTiter-Glo viability, GR50, 72h; format: cell-based, human; settings: FU-DDL S-1, 72h, read-out: Half maximum effective concentration corrected for cell growth (GR50)
Procedure: as §3

[10] = tested on: T1000 liposarcoma cell line; assay: CellTiter-Glo viability, GR50, 72h; format: cell-based, human; settings: T1000, 72h, read-out: Half maximum effective concentration corrected for cell growth (GR50)
Procedure: as §3

[11] = tested on: SA-4 liposarcoma cell line; assay: CellTiter-Glo viability, GR50, 72h; format: cell-based, human; settings: SA-4, 72h, read-out: Half maximum effective concentration corrected for cell growth (GR50)
Procedure: as §3

[12] = tested on: T449 liposarcoma cell line; assay: CellTiter-Glo viability, GR50, 72h; format: cell-based, human; settings: T449, 72h, read-out: Half maximum effective concentration corrected for cell growth (GR50)
Procedure: as §3

[13] = tested on: NRH-LS1 liposarcoma cell line; assay: CellTiter-Glo viability, GR50, 72h; format: cell-based, human; settings: NRH-LS1, 72h, read-out: Half maximum effective concentration corrected for cell growth (GR50)
Procedure: as §3

[14] = tested on: GOT3 liposarcoma cell line; assay: CellTiter-Glo viability, GR50, 72h; format: cell-based, human; settings: GOT3, 72h, read-out: Half maximum effective concentration corrected for cell growth (GR50)
Procedure: as §3

[15] = tested on: SW872 liposarcoma cell line; assay: CellTiter-Glo viability, GR50, 72h; format: cell-based, human; settings: SW 872, 72h, read-out: Half maximum effective concentration corrected for cell growth (GR50)
Procedure: as §3

[16] = tested on: LPS853 liposarcoma cell line; assay: CellTiter-Glo viability, GR50, 72h; format: cell-based, human; settings: LPS 853, 72h, read-out: Half maximum effective concentration corrected for cell growth (GR50)
Procedure: as §3

liposarcoma cell lines [17] = assay: TUNEL apoptosis assay by flow cytometry; format: cell-based, human; settings: growth arresting concentration, 17-72h, majority of cell lines
Procedure: as §2

liposarcoma cell lines [18] = assay: IncuCyte cell proliferation assay (growth reducing/arresting concentration); format: cell-based, human; settings: complete growth arrest between 96 and 120h
Procedure: as §1, with “15-30%” for “15–30%”, “'[…]” for “‘emmeans’ R”, “([…],” for “(T449,”

[19] = 120h treatment at growth arresting concentration
[20] = intravenous, phase I, maximum tolerated dose

IC50 ([4]; Homo sapiens): 110 nM
IC50 ([5]; Homo sapiens, LPS141): 182 nM
IC50 ([6]; Homo sapiens): 54 nM
IC50 ([7]; Homo sapiens): 82 nM
IC50 ([8]; Homo sapiens): 52 nM
IC50 ([9]; Homo sapiens): 96 nM
IC50 ([10]; Homo sapiens): 14 nM
IC50 ([11]; Homo sapiens): 86 nM
IC50 ([12]; Homo sapiens): 10 nM
IC50 ([13]; Homo sapiens): 469 nM
IC50 ([14]; Homo sapiens): 28 nM
IC50 ([15]; Homo sapiens, SW872): 401 nM
IC50 ([16]; Homo sapiens): 50 nM
Compound: COc1ncc(-c2ccc3nccc(-c4ccnnc4)c3c2)cc1NS(=O)(=O)c1ccc(F)cc1F [GSK2126458]
Cmax ([1]; phase I trial of multiple tumor types): ~100 nM
Cmax ([1]; read-out: clinically relevant concentration (Cmax or Css), values show Cmax or Css (italics), patients): 100 nM
reversibility of growth inhibition after drug removal (liposarcoma cell lines [2]; [19]): All of the tested cell lines regained their growth rate
time to regain growth rate after withdrawal (liposarcoma cell lines [2]; all tested cell lines, 120h treatment at growth arresting concentration): ≤ 3 h
concentration needed for irreversible growth arrest relative to growth arresting concentration (liposarcoma cell lines [2]; cell lines that resumed growth, 100x for GOT3 with GSK2126458): 10 x higher
cell cycle phase in which cells are blocked (liposarcoma cell lines [3]): G1 phase
apoptosis (increase in % of apoptotic cells) (liposarcoma cell lines [17]): ≤ 5%

Compound: CC(C)C[C@H](NC(=O)CNC(=O)c1cc(Cl)ccc1Cl)B1OC(=O)C(CC(=O)O)(CC(=O)O)O1 [MLN9708]
concentration required to completely arrest more than half of the cell lines (liposarcoma cell lines [18]): at least 1 μM
Cmax ([1]; human, in vivo): 30 to 300 nM
Cmax [1, 20]: ≤ 1400 nM
Css [1, 20]: 30 to 300 nM
reversibility of growth inhibition after drug removal (liposarcoma cell lines [2]; [19]): irreversibly inhibited growth of all tested cell lines
cell cycle phase in which cells are blocked (liposarcoma cell lines [3]): less specific arrest
IC50 [4]: 629 nM
IC50 [5]: 522 nM
IC50 [6]: 745 nM
IC50 [7]: 841 nM
IC50 [8]: 774 nM
IC50 [9]: 635 nM
IC50 [10]: 463 nM
IC50 [11]: 325 nM
IC50 [12]: 1030 nM
IC50 [13]: 743 nM
IC50 [14]: 99 nM
IC50 [15]: 553 nM
IC50 [16]: 95 nM
apoptosis (increase in % of apoptotic cells) (liposarcoma cell lines [17]): above 5%
